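Exposure lasted 48 hours, with cells grown in 96-well plates and compounds tested at five concentrations. TGI: total growth inhibition.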
Legend:
Test in all cases: NCI tumour cell line growth inhibition, 48 h
[1] = system: BT-549 breast
[2] = system: COLO 205 colon
[3] = system: HCC-2998 colon
[4] = system: HCT-116 colon
[5] = system: HCT-15 colon
[6] = system: IGROV1 ovarian
[7] = system: LOX IMVI melanoma
[8] = system: MDA-MB-435
[9] = system: MOLT-4 leukemia
[10] = system: NCI-H23 lung
[11] = system: OVCAR-8 ovarian
[12] = system: RPMI-8226 leukemia
[13] = system: SW-620 colon
[14] = system: TK-10 renal
[15] = system: UACC-257 melanoma
[16] = system: UACC-62 melanoma
[17] = system: UO-31 renal
[18] = system: K-562 leukemia

In the case of `Cc1cc(=O)oc2cc(SC(=O)N(C)C)ccc12`, the TGI [1] is reported as over 100 µM, the TGI [2] is reported as over 100 µM and the TGI [3] is reported as over 100 µM. It also gave a TGI [4] of over 100 µM, a TGI [5] of over 100 µM and a TGI [6] of over 100 µM. For the same molecule, the TGI [7] was over 100 µM, the TGI [8] was over 100 µM and the TGI [9] was over 100 µM. The TGI [10] was over 100 µM, the TGI [11] was over 100 µM and the TGI [12] was over 100 µM. For the same molecule, the TGI [13] was over 100 µM, the TGI [14] was over 100 µM and the TGI [15] was over 100 µM. For the same molecule, the TGI [16] was over 100 µM and the TGI [17] was over 100 µM.
In the case of `CC(C)/C(Cl)=N/OC(=O)Nc1cccc(C(F)(F)F)c1`, the TGI [1] is reported as 15.6 µM, the TGI [2] is reported as 3.46 µM and the TGI [3] is reported as 30 µM. It also gave a TGI [4] of 24.7 µM, a TGI [5] of 3.39 µM and a TGI [6] of 26.6 µM. It also gave a TGI [7] of 6.43 µM, a TGI [8] of 26.9 µM and a TGI [9] of 4.42 µM. The TGI [10] was 31.3 µM, the TGI [11] was 31.8 µM and the TGI [12] was 3.69 µM. For the same molecule, the TGI [13] was 1.8 µM, the TGI [14] was 12.7 µM and the TGI [15] was 29.5 µM. The TGI [16] was 27.6 µM and the TGI [17] was 22.9 µM.
`CC(C)(Br)C(Br)CCC(=CCBr)CBr` (mixture of isomers) showed a TGI [1] of 5.62 µM, a TGI [2] of 10.7 µM and a TGI [3] of 26.6 µM. For the same molecule, the TGI [4] was 4.41 µM, the TGI [5] was 5.98 µM and the TGI [6] was 8.9 µM. For the same molecule, the TGI [18] was 6.7 µM, the TGI [8] was 14.1 µM and the TGI [9] was 6.66 µM. It also gave a TGI [10] of 12.1 µM, a TGI [11] of 6.36 µM and a TGI [12] of 4.83 µM. For the same molecule, the TGI [13] was 7.18 µM, the TGI [14] was 22.5 µM and the TGI [15] was 15.6 µM. The TGI [16] was 4.4 µM and the TGI [17] was 27.5 µM.
For `Cc1n[n+](CC(=O)c2ccccc2)c2sc(N)nn12`, the TGI [1] was over 100 µM, the TGI [2] was over 100 µM and the TGI [4] was over 100 µM. For the same molecule, the TGI [5] was over 100 µM, the TGI [6] was over 100 µM and the TGI [18] was over 100 µM. For the same molecule, the TGI [7] was over 100 µM, the TGI [8] was over 100 µM and the TGI [9] was over 100 µM. The TGI [10] was over 100 µM, the TGI [11] was over 100 µM and the TGI [12] was over 100 µM. The TGI [13] was over 100 µM, the TGI [14] was over 100 µM and the TGI [15] was over 100 µM. It also gave a TGI [16] of over 100 µM and a TGI [17] of over 100 µM.
For `O=C(Nc1cc2c(=O)[nH]c3ccccc3c2oc1=O)c1cnccn1`, the TGI [1] was over 100 µM, the TGI [2] was over 100 µM and the TGI [3] was over 100 µM. For the same molecule, the TGI [4] was over 100 µM, the TGI [5] was over 100 µM and the TGI [6] was over 100 µM. It also gave a TGI [18] of over 100 µM, a TGI [7] of over 100 µM and a TGI [8] of over 100 µM. The TGI [9] was over 100 µM, the TGI [10] was over 100 µM and the TGI [11] was over 100 µM. It also gave a TGI [13] of over 100 µM, a TGI [14] of over 100 µM and a TGI [15] of over 100 µM. For the same molecule, the TGI [16] was over 100 µM and the TGI [17] was over 100 µM.
Molecule `NC(=O)NC(=O)CCC(NS(=O)(=O)c1ccccc1)C(=O)NC(N)=O` (stereo unspecified) has a TGI [1] of over 100 µM, a TGI [2] of over 100 µM and a TGI [3] of over 100 µM. For the same molecule, the TGI [4] was over 100 µM, the TGI [5] was over 100 µM and the TGI [6] was over 100 µM. The TGI [18] was over 100 µM, the TGI [7] was over 100 µM and the TGI [8] was over 100 µM. It also gave a TGI [9] of over 100 µM, a TGI [10] of over 100 µM and a TGI [11] of over 100 µM. For the same molecule, the TGI [13] was over 100 µM, the TGI [14] was over 100 µM and the TGI [15] was over 100 µM. For the same molecule, the TGI [16] was over 100 µM and the TGI [17] was over 100 µM.
`N=c1oc2c(Br)cc(Br)cc2cc1C(=O)Nc1ccccn1` showed a TGI [1] of over 100 µM, a TGI [2] of over 100 µM and a TGI [3] of over 100 µM. The TGI [4] was over 100 µM, the TGI [5] was over 100 µM and the TGI [6] was over 100 µM. It also gave a TGI [18] of over 100 µM, a TGI [7] of over 100 µM and a TGI [8] of over 100 µM. It also gave a TGI [9] of over 100 µM, a TGI [10] of over 100 µM and a TGI [11] of over 100 µM. For the same molecule, the TGI [12] was over 100 µM, the TGI [13] was over 100 µM and the TGI [15] was over 100 µM. The TGI [16] was over 100 µM.
With `C1=Nc2ccc(cc2)N=Cc2ccccc2OCc2cccc(n2)COc2ccccc21` the TGI [1] was over 100 µM, the TGI [2] was over 100 µM and the TGI [3] was over 100 µM. It also gave a TGI [4] of over 100 µM, a TGI [5] of over 100 µM and a TGI [6] of over 100 µM. For the same molecule, the TGI [18] was over 100 µM, the TGI [7] was over 100 µM and the TGI [8] was over 100 µM. The TGI [9] was over 100 µM, the TGI [10] was over 100 µM and the TGI [11] was over 100 µM. The TGI [13] was over 100 µM, the TGI [14] was over 100 µM and the TGI [15] was over 100 µM. The TGI [16] was over 100 µM and the TGI [17] was over 100 µM.
`CC(=O)OCC1OC(n2c(C#N)cc(=O)[nH]c2=O)CC1OC(C)=O` (stereo unspecified) gave a TGI [1] of over 100 µM, a TGI [2] of over 100 µM and a TGI [4] of over 100 µM. For the same molecule, the TGI [5] was over 100 µM, the TGI [6] was over 100 µM and the TGI [18] was over 100 µM. For the same molecule, the TGI [7] was over 100 µM, the TGI [8] was over 100 µM and the TGI [9] was over 100 µM. The TGI [10] was over 100 µM, the TGI [11] was over 100 µM and the TGI [13] was over 100 µM. It also gave a TGI [14] of over 100 µM, a TGI [15] of over 100 µM and a TGI [16] of over 100 µM. For the same molecule, the TGI [17] was over 100 µM.
`CC1C(=NO)C(C)C(c2ccccc2)N(N=O)C1c1ccccc1` (stereo unspecified) was tested, and the TGI [1] was 89.8 µM, the TGI [2] was 31.5 µM and the TGI [3] was 33.8 µM. The TGI [4] was 33.3 µM, the TGI [5] was 31.9 µM and the TGI [6] was 52.9 µM. For the same molecule, the TGI [18] was over 100 µM, the TGI [7] was 29.3 µM and the TGI [8] was 44.8 µM. It also gave a TGI [9] of 44.6 µM, a TGI [10] of 77.1 µM and a TGI [11] of 41.5 µM. It also gave a TGI [13] of 42 µM, a TGI [14] of 55.7 µM and a TGI [15] of 54.8 µM. It also gave a TGI [16] of 27.2 µM and a TGI [17] of 39.1 µM.
`Cc1ccc2c3c(cnc2n1)C(=O)OCCN3C` gave a TGI [1] of over 100 µM, a TGI [2] of over 100 µM and a TGI [3] of over 100 µM. The TGI [4] was over 100 µM, the TGI [5] was over 100 µM and the TGI [6] was over 100 µM. For the same molecule, the TGI [18] was over 100 µM, the TGI [7] was over 100 µM and the TGI [8] was over 100 µM. It also gave a TGI [9] of over 100 µM, a TGI [10] of over 100 µM and a TGI [11] of over 100 µM. For the same molecule, the TGI [13] was over 100 µM, the TGI [14] was over 100 µM and the TGI [15] was over 100 µM. It also gave a TGI [16] of over 100 µM and a TGI [17] of over 100 µM.
In the case of `CC(C)(C)N1C(=O)c2ccccc2C1(O)C(F)(F)F` (stereo unspecified), the TGI [1] is reported as over 100 µM, the TGI [2] is reported as over 100 µM and the TGI [3] is reported as over 100 µM. It also gave a TGI [4] of over 100 µM, a TGI [5] of over 100 µM and a TGI [6] of over 100 µM. The TGI [18] was over 100 µM, the TGI [7] was over 100 µM and the TGI [8] was over 100 µM. It also gave a TGI [10] of over 100 µM, a TGI [11] of over 100 µM and a TGI [12] of over 100 µM. For the same molecule, the TGI [13] was over 100 µM, the TGI [14] was over 100 µM and the TGI [15] was over 100 µM. For the same molecule, the TGI [16] was over 100 µM and the TGI [17] was over 100 µM.
`C=CCc1c(C)nc(C)nc1N/N=C/C=C/c1ccccc1` showed a TGI [1] of 63.2 µM, a TGI [2] of over 100 µM and a TGI [4] of over 100 µM. For the same molecule, the TGI [5] was over 100 µM, the TGI [6] was over 100 µM and the TGI [18] was 87.4 µM. For the same molecule, the TGI [7] was over 100 µM, the TGI [8] was over 100 µM and the TGI [9] was 54 µM. It also gave a TGI [10] of 94 µM, a TGI [11] of 97.7 µM and a TGI [12] of 74.9 µM. For the same molecule, the TGI [13] was over 100 µM, the TGI [14] was 99.9 µM and the TGI [15] was 48.9 µM. The TGI [16] was 53.4 µM and the TGI [17] was over 100 µM.
Molecule `COc1ccc(/C=N/n2c(=O)[nH]c3ccccc3c2=O)cc1` has a TGI [1] of over 100 µM, a TGI [2] of over 100 µM and a TGI [4] of over 100 µM. For the same molecule, the TGI [5] was over 100 µM, the TGI [6] was over 100 µM and the TGI [18] was over 100 µM. For the same molecule, the TGI [7] was over 100 µM, the TGI [8] was over 100 µM and the TGI [9] was over 100 µM. The TGI [10] was over 100 µM, the TGI [11] was over 100 µM and the TGI [12] was over 100 µM. It also gave a TGI [13] of over 100 µM, a TGI [14] of over 100 µM and a TGI [15] of over 100 µM. It also gave a TGI [16] of over 100 µM and a TGI [17] of over 100 µM.
